Reference: the supplement of paper PMC10307832

How the values were obtained:
Assay in all cases: relative viability (nuclei count vs DMSO), 5 days (fraction); higher = more cells survive
[1] = compound: O=c1ncccn1[C@@H]1O[C@H](CO)[C@@H](O)[C@H]1O [Zebularine] + N=C(N)NC(=N)NCCc1ccccc1 [Phenformin] (partner 250 µM)
How it was run: (§1)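 Each reported value is a median over duplicate plates. It expresses relative viability: treated-well nuclei count divided by vehicle-well nuclei count. Lung cancer cell lines in 1536-well plates were dosed by pin tool a day after seeding, alone with one drug or with a fixed anchor-drug dose plus five library-drug doses (not always all listed) in √10 steps, and nuclei were counted after 5 days.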

[2] = compound: CC(C)CCN1c2nc(Nc3cc(F)c(O)c(F)c3)ncc2N(C)C(=O)C1C [BI-D1870] + Cc1nc(NC(=O)N2CCC[C@H]2C(N)=O)sc1-c1ccnc(C(C)(C)C(F)(F)F)c1 [Alpelisib] (partner 2 µM)
How it was run: as §1

[3] = compound: O=c1ncccn1[C@@H]1O[C@H](CO)[C@@H](O)[C@H]1O [Zebularine] + COc1cc2c(Oc3ccc(NC(=O)C4(C(=O)Nc5ccc(F)cc5)CC4)cc3F)ccnc2cc1OCCCN1CCOCC1 [Foretinib] (partner 0.25 µM)
How it was run: as §1

[4] = compound: CC(C)CCN1c2nc(Nc3cc(F)c(O)c(F)c3)ncc2N(C)C(=O)C1C [BI-D1870] + Cc1nc(Nc2ncc(C(=O)Nc3c(C)cccc3Cl)s2)cc(N2CCN(CCO)CC2)n1 [Dasatinib] (partner 0.075 µM)
How it was run: as §1

| Cell Line | relative viability ([1]; first compound 1 µM) | relative viability ([1]; first compound 3.162 µM) | relative viability ([1]; first compound 10 µM) | relative viability ([1]; first compound 31.62 µM) | relative viability ([1]; first compound 100 µM) | relative viability ([2]; first compound 0.04 µM) | relative viability ([2]; first compound 0.1265 µM) | relative viability ([2]; first compound 0.4 µM) | relative viability ([2]; first compound 1.265 µM) | relative viability ([2]; first compound 4 µM) | relative viability ([3]; first compound 1 µM) | relative viability ([3]; first compound 3.162 µM) | relative viability ([3]; first compound 10 µM) | relative viability ([3]; first compound 31.62 µM) | relative viability ([3]; first compound 100 µM) | relative viability ([4]; first compound 0.04 µM) | relative viability ([4]; first compound 0.1265 µM) | relative viability ([4]; first compound 0.4 µM) | relative viability ([4]; first compound 1.265 µM) | relative viability ([4]; first compound 4 µM) |
| --- | --- | --- | --- | --- | --- | --- | --- | --- | --- | --- | --- | --- | --- | --- | --- | --- | --- | --- | --- | --- |
| HCC-78 | 0.678 | 0.728 | 0.496 | 0.74 | 0.387 | 0.323 | 0.279 | 0.301 | 0.321 | 0.246 | 0.523 | 0.547 | 0.53 | 0.584 | 0.477 | 0.362 | 0.382 | 0.422 | 0.442 | 0.33 |
| HCC-366 | 0.709 | 0.613 | 0.495 | 0.503 | 0.0892 | 0.47 | 0.351 | 0.344 | 0.514 | 0.359 | 0.935 | 0.922 | 0.797 | 0.65 | 0.163 | 0.633 | 0.528 | 0.603 | 0.731 | 0.427 |
| HCC-827 | 0.486 | 0.396 | 0.45 | 0.379 | 0.278 | 0.991 | 0.959 | 0.916 | 0.965 | 0.907 | 1.15 | 1.07 | 0.718 | 0.714 | 0.317 | 0.383 | 0.373 | 0.321 | 0.412 | 0.26 |
| HOP-62 | 0.827 | 0.653 | 0.286 | 0.282 | 0.266 | 1.21 | 1 | 1.02 | 1.05 | 1.2 | 1.28 | 1.15 | 0.335 | 0.252 | 0.186 | 0.707 | 0.675 | 0.603 | 0.66 | 0.524 |
| IA-LM |  |  |  |  |  | 0.687 | 0.673 | 0.759 | 0.765 | 0.446 | 1.1 | 1.14 |  | 1.34 | 0.877 |  |  |  |  |  |
| LC-2-ad | 0.657 | 0.538 | 0.416 | 0.488 | 0.325 | 0.962 | 0.836 | 0.849 | 0.855 | 0.701 | 0.868 | 0.828 | 0.717 | 0.674 | 0.454 | 1.05 | 0.576 | 0.473 | 0.578 | 0.43 |
| LCLC-97TM1 | 0.401 | 0.413 | 0.322 | 0.256 | 0.272 | 0.254 | 0.218 | 0.219 | 0.276 | 0.188 | 0.929 | 1 | 0.704 | 0.27 | 0.212 | 0.932 | 0.833 | 0.947 | 0.899 | 0.709 |
| LCLC-103H | 0.365 | 0.337 | 0.261 | 0.391 | 0.303 | 0.96 | 0.937 | 0.864 | 1.1 | 0.874 | 0.785 | 0.861 | 0.456 | 0.78 | 0.469 | 0.537 | 0.38 | 0.454 | 0.469 | 0.469 |
| LK-2 | 0.759 | 0.355 | 0.289 | 0.372 | 0.259 | 1.22 | 1.11 | 1.11 | 1.32 | 0.608 | 1.33 | 1.08 | 0.529 | 0.756 | 0.403 | 0.442 | 0.359 | 0.239 | 0.241 | 0.281 |
| LOU-NH91 | 0.674 | 0.717 | 0.437 | 0.693 | 0.549 | 0.811 | 0.796 | 0.753 | 0.735 | 0.605 | 0.95 | 0.888 | 0.866 | 0.947 | 0.567 | 0.582 | 0.527 | 0.516 | 0.595 | 0.458 |
| LU99A | 0.856 | 0.831 | 0.551 | 0.558 | 0.208 | 0.621 | 0.492 | 0.482 | 0.565 | 0.489 | 0.884 | 0.807 | 0.577 | 0.436 | 0.195 | 0.753 | 0.51 | 0.512 | 0.467 | 0.425 |
| LXF-289 | 0.512 | 0.503 | 0.41 | 0.406 | 0.26 | 1.12 | 0.983 | 1 | 1.02 | 0.899 | 1.09 | 0.984 | 0.847 | 0.626 | 0.241 | 0.254 | 0.239 | 0.216 | 0.223 | 0.244 |
| NCI-H522 | 0.589 | 0.631 | 0.622 | 0.656 | 0.65 |  |  |  |  |  |  |  |  |  |  | 0.91 | 0.874 | 0.777 | 0.99 | 0.926 |
| NCI-H1299 |  |  |  |  |  | 1.05 | 1.04 | 1.07 | 1.15 | 0.993 | 1.12 | 1.05 | 0.947 | 1.11 | 0.549 |  |  |  |  |  |
| NCI-H1623 | 0.624 | 0.531 | 0.479 | 0.535 | 0.437 |  |  |  |  |  | 1 | 0.733 | 0.723 | 0.791 | 0.484 | 0.558 | 0.581 | 0.527 | 0.473 | 0.452 |
| NCI-H1650 | 0.493 | 0.476 | 0.307 | 0.492 | 0.353 |  |  |  |  |  | 1.26 | 1.02 | 0.905 | 1.46 | 1.07 | 0.266 | 0.393 | 0.32 | 0.281 | 0.273 |
| NCI-H1703 |  |  |  |  |  | 0.263 | 0.341 | 0.301 | 0.379 | 0.305 | 0.338 | 0.285 |  | 0.35 | 0.389 |  |  |  |  |  |
| NCI-H1792 | 0.44 | 0.281 | 0.119 | 0.258 | 0.189 | 0.724 | 0.677 | 0.641 | 0.736 | 0.538 |  |  |  |  |  | 0.841 | 0.68 | 0.599 | 0.829 | 0.645 |
| NCI-H2342 | 0.635 | 0.528 | 0.49 | 0.73 | 0.59 |  |  |  |  |  | 1.33 | 1.07 | 0.802 | 0.953 | 0.748 | 0.333 | 0.313 | 0.315 | 0.329 | 0.406 |
| SW 900 | 0.809 | 0.559 | 0.349 | 0.65 | 0.407 |  |  |  |  |  | 1.28 | 0.633 | 0.545 | 0.762 | 0.498 | 0.66 | 0.456 | 0.662 | 0.499 | 0.338 |
